Key:
Type in all cases: cell-based
[1] = tested on: mTORC1 over mTORC2; assay: mTORC1 over mTORC2 selectivity by comparing pS6K1 and pAKT IC50; settings: by comparing pS6K1 and pAKT IC50, 90 min
How it was run: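 MCF-7 cells were treated with compounds (0.5% final DMSO) for 90 minutes in one protocol and 2 hours in the other, then lysed. Phospho-signal in lysates was read by bead-based donor/acceptor proximity assay. pS6K1 and pAKT IC50 values were compared to judge mTORC1 over mTORC2 selectivity, at 90 min and at 24 hrs.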

[2] = tested on: p-Akt 1/2/3 (Ser473) in MCF-7 cells; assay: AlphaLISA Ultra pAKT assay; settings: Homo sapiens, 1.5 h; MCF7 cells, 90 min
How it was run: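 MCF-7 cells (16,000˜20,000 per well in 36 μL medium) were seeded in Corning 3701 plates for 20˜24 hour, refreshed with new medium for 90 minutes, then given 12 μL of 4× compound (0.5% final DMSO). Cells were lysed with 2× lysis buffer, and lysate was analyzed by AlphaLISA Ultra pAKT using acceptor and donor beads, read on an EnSpire reader.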

[3] = tested on: p-p70 S6 Kinase (Thr389) in MCF-7 cells; assay: AlphaLISA Ultra pS6K1 assay; settings: Homo sapiens, 1.5 h; MCF7 cells, 90 min
How it was run: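 Phospho-S6K1 (Thr389) quantified by AlphaLISA Ultra read-out (2 h acceptor, then 2 h donor beads) in lysates of MCF-7 cells. Cells were plated 20–24 h before, refed 2 h, exposed to compounds for 90 min at 0.5% final DMSO, and lysates stored at −80 °C.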

| SMILES | IC50 [2] [nM] | IC50 [3] [nM] | mTORC1 selective @ 90 min [1] |
| --- | --- | --- | --- |
| CO[C@@H]1/C(C)=C/[C@@H](C)C(=O)C[C@@H]([C@H](C)C[C@@H]2CC[C@@H](O)[C@H](OC)C2)OC(=O)[C@@H]2CCCCN2C(=O)C(=O)[C@]2(O)O[C@@H](CC[C@H]2C)C[C@@H](OCCOC2COC2)/C(C)=C/C=C/C=C/[C@@H](C)C[C@@H](C)C(=O)[C@@H]1OC [I-96] | ≥ 1000 | ≥ 1000 | No |
| CO[C@@H]1C[C@H](C[C@@H](C)[C@@H]2CC(=O)[C@H](C)/C=C(\C)[C@@H](O)[C@@H](OC)C(=O)[C@H](C)C[C@H](C)/C=C/C=C/C=C(\C)C(OCC3COCCO3)C[C@@H]3CC[C@@H](C)[C@@](O)(O3)C(=O)C(=O)N3CCCC[C@H]3C(=O)O2)CC[C@H]1OC(=O)N(C)CCN1CCOCC1 (stereo partly drawn) [I-99, [(40S,42R,44R)-4-[(2R)-2-[(27E,29E,31E,32E,36R,37S,38R,39R,41S,43S,45S,46S,47R,48R,58R)-47,58-dihydroxy-45,48-dimethoxy-36,37,38,39,49,50-hexamethyl-51,52,53,54,55-pentaoxo-71,72-dioxa-60-azatricyclohexatriaconta-27,29,31(49),32(50)-tetraen-46-yl]propyl]-44-methoxy-42-cyclohexyl]N-methyl-N-(2-morpholinoethyl)carbamate] | ≥ 1000 | 1 to 10 | Yes |
| CO[C@@H]1C[C@H](C[C@@H](C)[C@@H]2CC(=O)[C@H](C)/C=C(\C)[C@@H](O)[C@@H](OC)C(=O)[C@H](C)C[C@H](C)/C=C/C=C/C=C(\C)[C@H](OCCOC3COC3)C[C@@H]3CC[C@@H](C)[C@@](O)(O3)C(=O)C(=O)N3CCCC[C@H]3C(=O)O2)CC[C@H]1OCCCN1C[C@@H](C)O[C@@H](C)C1 [I-100, (27E,29E,31E,32E,39R,40S,41R,44R,46S,48S,50R,51S,53R,54R,63R)-51-[(1R)-2-[(1S,3R,4R)-4-[3-[(2S,6R)-2,6-dimethylmorpholin-4-yl]propoxy]-3-methoxy-cyclohexyl]-1-methyl-ethyl]-53,63-dihydroxy-54-methoxy-39,40,41,44,55,56-hexamethyl-50-[2-(oxetan-3-yloxy)ethoxy]-75,76-dioxa-64-azatricyclohexatriaconta-27,29,31(55),32(56)-tetraene-57,58,59,60,61-pentone] | ≥ 1000 | 1 to 10 | Yes |
| CO[C@@H]1C[C@H](C[C@@H](C)[C@@H]2CC(=O)[C@H](C)/C=C(\C)[C@@H](O)[C@@H](OC)C(=O)[C@H](C)C[C@H](C)/C=C/C=C/C=C(\C)[C@@H](OCCOC3COC3)C[C@@H]3CC[C@@H](C)[C@@](O)(O3)C(=O)C(=O)N3CCCC[C@H]3C(=O)O2)CC[C@H]1OCCCN1C[C@@H](C)O[C@@H](C)C1 [I-101, (27E,29E,31E,32E,39R,40S,41R,44R,46S,48S,50S,51S,53R,54R,63R)-51-[(1R)-2-[(1S,3R,4R)-4-[3-[(2S,6R)-2,6-dimethylmorpholin-4-yl]propoxy]-3-methoxy-cyclohexyl]-1-methyl-ethyl]-53,63-dihydroxy-54-methoxy-39,40,41,44,55,56-hexamethyl-50-[2-(oxetan-3-yloxy)ethoxy]-75,76-dioxa-64-azatricyclohexatriaconta-27,29,31(55),32(56)-tetraene-57,58,59,60,61-pentone] | ≥ 1000 | 10 to 100 | Yes |
| CO[C@@H]1C[C@H](C[C@@H](C)[C@@H]2CC(=O)[C@H](C)/C=C(\C)[C@@H](O)[C@@H](OC)C(=O)[C@H](C)C[C@H](C)/C=C/C=C/C=C(\C)[C@H](OCC3COCCO3)C[C@@H]3CC[C@@H](C)[C@@](O)(O3)C(=O)C(=O)N3CCCC[C@H]3C(=O)O2)CC[C@H]1OC(=O)NCCN1CCOCC1 (stereo partly drawn) [I-102, [(42S,44R,46R)-4-[(2R)-2-[(28E,30E,32E,33E,38R,39S,40R,41R,43S,45S,47R,48S,50R,51R,61R)-47-(1,4-dioxan-2-ylmethoxy)-50,61-dihydroxy-51-methoxy-38,39,40,41,52,53-hexamethyl-54,55,56,57,58-pentaoxo-76,77-dioxa-64-azatricyclohexatriaconta-28,30,32(52),33(53)-tetraen-48-yl]propyl]-46-methoxy-44-cyclohexyl] N-(2-morpholinoethyl)carbamate] | ≥ 1000 | < 1 | Yes |

More lines, main results first:

| IC50 [2] [nM] | IC50 [3] [nM] | SMILES | mTORC1 selective @ 90 min [1] |
| --- | --- | --- | --- |
| ≥ 1000 | 1 to 10 | CO[C@@H]1C[C@H](C[C@@H](C)[C@@H]2CC(=O)[C@H](C)/C=C(\C)[C@@H](O)[C@@H](OC)C(=O)[C@H](C)C[C@H](C)/C=C/C=C/C=C(\C)C(OCCOC3COC3)C[C@@H]3CC[C@@H](C)[C@@](O)(O3)C(=O)C(=O)N3CCCC[C@H]3C(=O)O2)CC[C@H]1OCCCN1CC2(COC2)C1 (stereo partly drawn) [I-91, (27E,29E,31E,32E,39R,40S,41R,42R,44S,46S,49S,51R,52R,62R)-51,62-dihydroxy-52-methoxy-49-[(1R)-2-[(1S,3R,4R)-3-methoxy-4-[3-(2-oxa-6-azaspiro[3.3]heptan-6-yl)propoxy]cyclohexyl]-1-methyl-ethyl]-39,40,41,42,53,54-hexamethyl-48-[2-(oxetan-3-yloxy)ethoxy]-74,75-dioxa-63-azatricyclohexatriaconta-27,29,31(53),32(54)-tetraene-55,56,57,58,59-pentone] | Yes |
| ≥ 1000 | 10 to 100 | CO[C@@H]1C[C@H](C[C@@H](C)[C@@H]2CC(=O)[C@H](C)/C=C(\C)[C@@H](O)[C@@H](OC)C(=O)[C@H](C)C[C@H](C)/C=C/C=C/C=C(\C)[C@H](OCC3COCCO3)C[C@@H]3CC[C@@H](C)[C@@](O)(O3)C(=O)C(=O)N3CCCC[C@H]3C(=O)O2)CC[C@H]1OCCCO (stereo partly drawn) [I-92, (24E,26E,28E,29E,35R,36S,37R,38R,40S,42S,44R,45S,47R,48R,57R)-44-(1,4-dioxan-2-ylmethoxy)-47,57-dihydroxy-45-[(1R)-2-[(1S,3R,4R)-4-(3-hydroxypropoxy)-3-methoxy-cyclohexyl]-1-methyl-ethyl]-48-methoxy-35,36,37,38,49,50-hexamethyl-69,70-dioxa-58-azatricyclohexatriaconta-24,26,28(49),29(50)-tetraene-51,52,53,54,55-pentone] | Yes |
| ≥ 1000 | 1 to 10 | CO[C@@H]1C[C@H](C[C@@H](C)[C@@H]2CC(=O)[C@H](C)/C=C(\C)[C@@H](O)[C@@H](OC)C(=O)[C@H](C)C[C@H](C)/C=C/C=C/C=C(\C)[C@@H](OCC3COCCO3)C[C@@H]3CC[C@@H](C)[C@@](O)(O3)C(=O)C(=O)N3CCCC[C@H]3C(=O)O2)CC[C@H]1OCCCO (stereo partly drawn) [I-93, (24E,26E,28E,29E,35R,36S,37R,38R,40S,42S,44S,45S,47R,48R,57R)-44-(1,4-dioxan-2-ylmethoxy)-47,57-dihydroxy-45-[(1R)-2-[(1S,3R,4R)-4-(3-hydroxypropoxy)-3-methoxy-cyclohexyl]-1-methyl-ethyl]-48-methoxy-35,36,37,38,49,50-hexamethyl-69,70-dioxa-58-azatricyclohexatriaconta-24,26,28(49),29(50)-tetraene-51,52,53,54,55-pentone] | Yes |
| ≥ 1000 | 10 to 100 | COCCO[C@@H]1CC[C@@H](C[C@@H](C)[C@@H]2CC(=O)[C@H](C)/C=C(\C)[C@@H](OC)[C@@H](OC)C(=O)[C@H](C)C[C@H](C)/C=C/C=C/C=C(\C)C(OCCOC3COC3)C[C@@H]3CC[C@@H](C)[C@@](O)(O3)C(=O)C(=O)N3CCCC[C@H]3C(=O)O2)C[C@H]1OC (stereo partly drawn) [I-94, (25E,27E,29E,30E,36R,37S,38R,39R,41S,43S,46S,48R,49R,58R)-58-hydroxy-48,49-dimethoxy-46-[(1R)-2-[(1S,3R,4R)-3-methoxy-4-(2-methoxyethoxy)cyclohexyl]-1-methyl-ethyl]-36,37,38,39,50,51-hexamethyl-45-[2-(oxetan-3-yloxy)ethoxy]-67,68-dioxa-59-azatricyclohexatriaconta-25,27,29(50),30(51)-tetraene-52,53,54,55,56-pentone] | Yes |
| ≥ 1000 | 100 to 1000 | CO[C@@H]1/C(C)=C/[C@@H](C)C(=O)C[C@@H]([C@H](C)C[C@@H]2CC[C@@H](OC)[C@H](OC)C2)OC(=O)[C@@H]2CCCCN2C(=O)C(=O)[C@]2(O)O[C@@H](CC[C@H]2C)CC(OCCOCCN(C)C)/C(C)=C/C=C/C=C/[C@@H](C)C[C@@H](C)C(=O)[C@@H]1OC (stereo partly drawn) [I-95, (25E,27E,29E,30E,36R,37S,38R,39R,41S,43S,46S,47R,48R,57R)-46-[(1R)-2-[(1S,3R,4R)-3,4-dimethoxycyclohexyl]-1-methyl-ethyl]-45-[2-[2-(dimethylamino)ethoxy]ethoxy]-57-hydroxy-47,48-dimethoxy-36,37,38,39,49,50-hexamethyl-66,67-dioxa-58-azatricyclohexatriaconta-25,27,29(49),30(50)-tetraene-51,52,53,54,55-pentone] | Yes |

From patent publication US20220267352A1, “RAPAMYCIN ANALOGS AND USES THEREOF” (Anakuria Therapeutics, Inc., priority 2021, published 2022)
